A word on the IC50: it is the concentration that inhibits the measured activity by half. A low value points to greater potency in that assay.

The source of these data is US10703746B2, “Mutant IDH1 inhibitors useful for treating cancer” (THE UNITED STATES OF AMERICA, AS REPRESENTED BY THE …, priority 2014, dated 2020).

One test deals with IDH1 R132C (Homo sapiens, UniProt O75874, R132C). As to the kind of experiment: IDH1 R132C enzymatic assay (NADPH depletion coupled to diaphorase/resazurin). Type of test: biochemical. Summed up:
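NADPH depletion, read via diaphorase/resazurin coupling, after adding substrate at 0.6 mM α-KG and 0.012 mM NADPH. Beforehand, 0.00032 mg/mL enzyme sat with compound 30 min at room temperature in pH 6.5 potassium phosphate buffer with MgCl2, glycerol and BSA.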
In general terms: Alamar Blue is a resazurin reagent that responds to reducing activity.

The target of the next test is IDH1 R132H (Homo sapiens, UniProt O75874, R132H). As to the kind of experiment: IDH1 R132H enzymatic assay (NADPH depletion coupled to diaphorase/resazurin). It is filed as biochemical.
Sequence of IDH1 R132H (O75874 whole entry R132H): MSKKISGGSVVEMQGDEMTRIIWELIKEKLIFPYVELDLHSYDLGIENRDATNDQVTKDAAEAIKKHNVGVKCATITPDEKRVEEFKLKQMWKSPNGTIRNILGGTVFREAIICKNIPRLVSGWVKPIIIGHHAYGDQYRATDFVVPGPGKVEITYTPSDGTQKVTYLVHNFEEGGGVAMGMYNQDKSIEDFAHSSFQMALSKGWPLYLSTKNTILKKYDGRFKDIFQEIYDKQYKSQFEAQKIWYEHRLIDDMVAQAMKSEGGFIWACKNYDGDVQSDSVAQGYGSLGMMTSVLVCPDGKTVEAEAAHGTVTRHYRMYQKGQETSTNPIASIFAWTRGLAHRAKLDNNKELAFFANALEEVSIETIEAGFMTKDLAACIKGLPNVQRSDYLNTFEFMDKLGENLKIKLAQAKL
Setting [1] is: enzymatic inhibition, IDH1 R132C.
[2] abbreviates: enzymatic inhibition, IDH1 R132H.
Setting [3] is: IDH1 R132C enzymatic inhibition, IC50 class.
The mark [4] stands for this setting: IDH1 R132H enzymatic inhibition, IC50 class.

Molecules are shown by their SMILES.

Sequence of IDH1 R132C (O75874 whole entry R132C): as the sequence (O75874 whole entry R132H) above, with H132C counted along it

For the compound `CCc1ccc(F)cc1-n1c(C=C(C)C)c(C(=O)N2CCNCC2)cc(-c2nc(-c3ccc(C(F)(F)F)nc3)cs2)c1=O` [Compound 424], the IC50 on IDH1 R132C (setting [1]) was 0.3 to 1 µM; at IDH1 R132H (setting [2]), less than 0.3 µM.
On to `COc1ccc(C(=O)O)cc1-n1c2c(cc(-c3nc(-c4ccc(Cl)cc4)cs3)c1=O)C(=O)CC(C)(C)C2` [Compound 27], for which the IC50 on IDH1 R132C (setting [3]) and on IDH1 R132H (setting [4]) was 5 to 20 µM each time.
With `CCc1cccc(CC)c1-n1c(C)c(C(=O)N2CCN(C)CC2)cc(-c2nc(-c3ccc(Cl)cc3)cs2)c1=O` [Compound 53], the figures for the IC50 on IDH1 R132C (setting [3]) and against IDH1 R132H (setting [4]) were 0.3 to 1 µM and 1 to 5 µM, respectively.
Turning to `CCc1cccc(CC)c1-n1c(C=C(C)C)c(C(=O)N2CCNC(=O)C2C)cc(-c2nc(-c3ccc(Cl)cc3)cs2)c1=O` (stereo not shown) [Compound 526], the IC50 against IDH1 R132C (setting [1]) and on IDH1 R132H (setting [2]) was less than 0.3 µM each time.
Turning to `CCc1cccc(CC)c1-n1c(C=C(C)C)c(C(=O)N2CCNCC2)cc(-c2nc(-c3ccc(Cl)cn3)cs2)c1=O` [Compound 377], the IC50 on IDH1 R132C (setting [3]) and against IDH1 R132H (setting [4]) was less than 0.3 µM in each case.
On to `COc1ccc(C)cc1-n1c(C=C(C)C)c(C(=O)N2CCNCC2)cc(-c2nc(-c3ccc(Cl)cc3)cs2)c1=O` [Compound 438], for which the IC50 on IDH1 R132C (setting [1]) and at IDH1 R132H (setting [2]) was less than 0.3 µM in each case.
On to `CC(C)=Cc1c(C(=O)N2CCNCC2)cc(-c2nc(-c3ccc(Cl)cc3)cs2)c(=O)n1-c1cc(C)cnc1OC(C)C` [Compound 401], for which the IC50 against IDH1 R132C (setting [3]) and at IDH1 R132H (setting [4]) was less than 0.3 µM in each case.
Turning to `CCc1cccc(CC)c1-n1c(CC(C)C)c(C(=O)N2CCNC[C@H]2C)cc(-c2nc(-c3ccc(Cl)cc3)cs2)c1=O` [Compound 267], the IC50 is less than 0.3 µM against IDH1 R132C (setting [3]) and 0.3 to 1 µM on IDH1 R132H (setting [4]).
For the compound `CCc1cccc(CC)c1-n1c(C=C(C)C)c(C(=O)N2CCN[C@H](C)C2)cc(-c2nc(-c3ccc(C(F)(F)F)cc3)cs2)c1=O` [Compound 483], the IC50 against IDH1 R132C (setting [1]) and on IDH1 R132H (setting [2]) was less than 0.3 µM each time.
Turning to `CCc1cccc(CC)c1-n1c(CC(C)C)c(C(=O)N2CCN[C@@H](C)C2)cc(-c2nc(-c3ccc(Cl)cc3)cs2)c1=O` [Compound 141], the IC50 is less than 0.3 µM on IDH1 R132C (setting [3]) and 0.3 to 1 µM on IDH1 R132H (setting [4]).
For `CCc1cccc(CC)c1-n1c(C=C(C)C)c(C(=O)N2CCNCC2C)cc(-c2nc(-c3ccc(Cl)cc3)cs2)c1=O` (stereo not shown) [Compound 631], in that order: less than 0.3 µM and less than 0.3 µM.
Turning to `CCc1cccc(CC)c1-n1c(C(C)C)c(C(=O)OC)cc(-c2nc(-c3ccc(Cl)cc3)cs2)c1=O` [Compound 125], the IC50 at IDH1 R132C (setting [3]) and on IDH1 R132H (setting [4]) was 1 to 5 µM each time.
Turning to `COc1ccc(CN2CCN(C)CC2)cc1-n1c2c(cc(-c3nc(-c4ccc(Cl)cc4)cs3)c1=O)C(=O)CCC2` [Compound 527], the IC50 against IDH1 R132C (setting [1]) and against IDH1 R132H (setting [2]) was greater than 20 µM throughout.
Take `CCc1cccc(CC)c1-n1c(CC(C)C)c(C(=O)N2CC(=O)N[C@H](C(=O)O)C2)cc(-c2nc(-c3ccc(Cl)cc3)cs2)c1=O` [Compound 193]: the IC50 at IDH1 R132C (setting [3]) and against IDH1 R132H (setting [4]) was 0.3 to 1 µM throughout.
Regarding `CCc1cccc(CC)c1-n1c(CC(C)C)c(C(=O)N2CCNCC2)cc(-c2nc(-c3ccc(Cl)c(C)c3)c(C)s2)c1=O` [Compound 624], the IC50 on IDH1 R132C (setting [3]) was less than 0.3 µM; against IDH1 R132H (setting [4]), 0.3 to 1 µM.
For `CCc1cccc(CC)c1-n1c(C)c(C(=O)NC(C)C)cc(-c2nc(-c3ccc(Cl)cc3)cs2)c1=O` [Compound 311], in that order: 1 to 5 µM and 1 to 5 µM.
Regarding `CCc1ccc(F)cc1-n1c(C=C(C)C)c(C(=O)N2CCNCC2)cc(-c2nc(-c3ccc(C(F)F)cc3)cs2)c1=O` [Compound 379], the IC50 at IDH1 R132C (setting [3]) and on IDH1 R132H (setting [4]) was less than 0.3 µM each time.
Turning to `CN1CCN(Cc2cccc(-n3c4c(cc(-c5nc(-c6ccc(Cl)cc6)cs5)c3=O)C(=O)CCC4)c2)CC1` [Compound 570], the half-maximal inhibitory concentration (IC50) against IDH1 R132C (setting [1]) and at IDH1 R132H (setting [2]) was greater than 20 µM throughout.
As for `CCOc1ccc(-c2csc(-c3cc(C(=O)N4CCNCC4)c(C=C(C)C)n(-c4c(CC)cccc4CC)c3=O)n2)cc1` [Compound 598], the IC50 against IDH1 R132C (setting [1]) and against IDH1 R132H (setting [2]) was less than 0.3 µM each time.
Consider `COc1ccc(-c2csc(-c3cc4c(n(-c5ccccc5C(F)(F)F)c3=O)CC(C)(C)CC4=O)n2)cc1` [Compound 204], for which the IC50 fell in the range of 0.3 to 1 µM on IDH1 R132C (setting [3]) and 1 to 5 µM against IDH1 R132H (setting [4]).
Take `COc1ccc(OC)c(-n2c3c(cc(-c4nc(C5CCCCC5)cs4)c2=O)C(=O)CC(C)(C)C3)c1` [Compound 69]: the IC50 at IDH1 R132C (setting [3]) and against IDH1 R132H (setting [4]) was 1 to 5 µM each time.
Turning to `CCc1cccc(CC)c1-n1c2c(cc(-c3nc(C4=CCNCC4)c(C)s3)c1=O)C(=O)CC(C)(C)C2` [Compound 298], the 50% inhibitory concentration (IC50) at IDH1 R132C (setting [3]) was 5 to 20 µM; at IDH1 R132H (setting [4]), greater than 20 µM.
For `C=Cc1sc(-c2cc(C(=O)N3CCNCC3)c(CC(C)C)n(-c3c(CC)cccc3CC)c2=O)nc1-c1ccc(Cl)cc1` [Compound 413], the IC50 against IDH1 R132C (setting [1]) was less than 0.3 µM; at IDH1 R132H (setting [2]), 0.3 to 1 µM.
Turning to `O=C1CCCc2c1cc(-c1nc(-c3ccc(Cl)cc3)cs1)c(=O)n2-c1ccccn1` [Compound 350], the IC50 at IDH1 R132C (setting [3]) and against IDH1 R132H (setting [4]) was greater than 20 µM throughout.
Turning to `COc1ncc(F)cc1-n1c(C=C(C)C)c(C(=O)N2CCNCC2)cc(-c2nc(-c3ccc(Cl)cc3)cs2)c1=O` [Compound 361], the IC50 against IDH1 R132C (setting [3]) and on IDH1 R132H (setting [4]) was less than 0.3 µM throughout.
As to `CCc1cccc(CC)c1-n1c(CC2CCNCC2)c(C(=O)N2CCNCC2)cc(-c2nc(-c3ccc(Cl)cc3)cs2)c1=O` [Compound 615], the IC50 against IDH1 R132C (setting [1]) and on IDH1 R132H (setting [2]) was greater than 20 µM each time.
Take `CCc1cccc(CC)c1-n1c(CC(C)C)c(C(=O)N2CCNCC2C(=O)O)cc(-c2nc(-c3ccc(Cl)cc3)cs2)c1=O` (stereo not shown) [Compound 75]: the IC50 against IDH1 R132C (setting [3]) was in the range of 0.3 to 1 µM; against IDH1 R132H (setting [4]), 1 to 5 µM.
With `CCc1cccc(CC)c1-n1c(C)c(C(=O)N2CCNCC2)c(O)c(-c2nc(-c3ccc(Cl)cc3)cs2)c1=O` [Compound 535], the IC50 against IDH1 R132C (setting [1]) was in the range of 1 to 5 µM; at IDH1 R132H (setting [2]) it was 0.3 to 1 µM.
`CCc1cccc(CC)c1-n1c2c(cc(-c3nc(-c4ccc(OC)cc4)cs3)c1=O)C(=O)CC(C)(C)C2` [Compound 183]: the 50% inhibitory concentration (IC50) against IDH1 R132C (setting [3]) and on IDH1 R132H (setting [4]) was 0.3 to 1 µM each time.
Consider `CCc1ncc(OC)cc1-n1c(C=C(C)C)c(C(=O)N2CCNCC2)cc(-c2nc(-c3ccc(C(F)(F)F)cc3)cs2)c1=O` [Compound 636], for which the IC50 at IDH1 R132C (setting [3]) and on IDH1 R132H (setting [4]) was less than 0.3 µM each time.
On to `CCc1cccc(CC)c1-n1c2c(cc(-c3nc(-c4ccncc4)cs3)c1=O)C(=O)CC(C)(C)C2` [Compound 132], for which the IC50 on IDH1 R132C (setting [3]) and at IDH1 R132H (setting [4]) was 1 to 5 µM in each case.
As for `CCc1cccc(CC)c1-n1c(CC(C)C)c(C(=O)N2CCNCC2)cc(-c2coc(-c3ccc(Cl)cc3)n2)c1=O` [Compound 643], the IC50 against IDH1 R132C (setting [3]) and at IDH1 R132H (setting [4]) was 0.3 to 1 µM in each case.
With `CCc1cccc(CC)c1-n1c(C)c(C(=O)NC2CCNC2)cc(-c2nc(-c3ccc(Cl)cc3)cs2)c1=O` (stereo not shown) [Compound 99], the values for the IC50 on IDH1 R132C (setting [3]) and against IDH1 R132H (setting [4]) were 0.3 to 1 µM and 1 to 5 µM, respectively.
Turning to `O=C1CCCc2c1cc(-c1nc(-c3ccc(Cl)cc3)cs1)c(=O)n2-c1ccccc1CN1CCOCC1` [Compound 339], the IC50 was in the range of 1 to 5 µM on IDH1 R132C (setting [3]) and 5 to 20 µM against IDH1 R132H (setting [4]).
As to `CC(C)Oc1ccccc1-n1c2c(cc(-c3nc(-c4ccc(Cl)cc4)cs3)c1=O)C(=O)CC(C)(C)C2` [Compound 130], the concentration for half-maximal inhibition (IC50) against IDH1 R132C (setting [3]) was 0.3 to 1 µM; on IDH1 R132H (setting [4]), 1 to 5 µM.
